Measured values published in publication PMC11364775, “Ion occupancy of the selectivity filter controls opening of a cytoplasmic gate in the K2P channel TALK-2” (Nature Communications, 2024).

Assays:
Format in all cases: cell-based
[1] = biological target: T1, WT TREK-2 channels (human K2P10.1) (Homo sapiens, UniProt P57789); test: Tail current deactivation kinetics with pore blocker (inside-out patch)
T1 construct: expressed in transfected cells; host or cells: Xenopus laevis oocytes (cRNA injection), excised inside-out patches
T1 sequence (P57789 1-538): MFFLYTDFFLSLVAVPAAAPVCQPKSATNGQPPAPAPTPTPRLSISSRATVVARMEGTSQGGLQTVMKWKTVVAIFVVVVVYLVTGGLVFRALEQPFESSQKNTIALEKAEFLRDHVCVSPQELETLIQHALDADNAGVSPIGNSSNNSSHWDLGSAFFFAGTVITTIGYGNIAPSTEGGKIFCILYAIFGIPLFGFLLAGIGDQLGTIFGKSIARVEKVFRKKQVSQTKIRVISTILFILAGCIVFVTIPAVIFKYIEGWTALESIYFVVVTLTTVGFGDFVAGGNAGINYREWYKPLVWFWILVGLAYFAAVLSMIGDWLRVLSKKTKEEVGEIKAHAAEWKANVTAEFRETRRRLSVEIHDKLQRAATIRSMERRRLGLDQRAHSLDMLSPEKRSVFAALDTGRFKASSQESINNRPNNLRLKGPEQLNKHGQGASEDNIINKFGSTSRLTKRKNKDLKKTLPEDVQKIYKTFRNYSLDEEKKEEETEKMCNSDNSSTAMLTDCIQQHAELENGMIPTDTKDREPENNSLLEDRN

[2] = biological target: T2, TALK-2 L264A mutant channels (Homo sapiens, UniProt Q96T54, L264A); test: Pore blocker inhibition (dose-response, residual currents) in inside-out patches at +40 mV; parameters: expressed in transfected cells; host or cells: Xenopus laevis oocytes (cRNA injection), excised inside-out patches
T2 sequence (Q96T54 1-332 L264A): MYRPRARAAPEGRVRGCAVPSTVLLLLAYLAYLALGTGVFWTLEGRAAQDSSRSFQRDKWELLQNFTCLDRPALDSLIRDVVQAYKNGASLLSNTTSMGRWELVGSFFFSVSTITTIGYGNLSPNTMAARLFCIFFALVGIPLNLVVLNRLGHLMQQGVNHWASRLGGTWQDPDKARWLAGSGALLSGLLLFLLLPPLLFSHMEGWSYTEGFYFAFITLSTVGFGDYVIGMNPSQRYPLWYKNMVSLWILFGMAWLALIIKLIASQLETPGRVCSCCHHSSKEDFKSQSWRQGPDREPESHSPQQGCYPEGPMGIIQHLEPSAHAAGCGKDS
Experimental: Data shown are the mean ± s.e.m and the number (n) of independent experiments and repeats of representative measurements with similar results is indicated in the figure.
Electrophysiological recordings: Excised patch measurements in inside-out configuration under voltage-clamp conditions were performed at room temperature (22 – 24 °C). Patch pipettes were made from thick-walled borosilicate glass GB 200TF-8P (Science Products, Germany), had resistances of 0.2–0.5 MΩ (tip diameter of 10 - 25 µm) and filled with a pipette solution (in mM): 120 KCl, 10 HEPES and 3.6 CaCl2 (pH 7.0 - 8.5 adjusted with KOH/HCl) or 120 KCl, 10 AMPSO and 3.6 CaCl2 (pH 9.0 - 10.5 adjusted with KOH/HCl). Intracellular bath solutions and compounds were applied to the cytoplasmic side of excised patches for the various K^+ channels via a gravity flow multi-barrel pipette system. Intracellular solution had the following composition (in mM): 120 KCl, 10 HEPES, 2 EGTA and 1 Pyrophosphate (pH adjusted with KOH/HCl). In other intracellular bath solutions, K^+ was replaced by Rb^+ (pH 7.4 adjusted with RbOH/HCl). Currents were recorded with an EPC10 amplifier (HEKA electronics, Germany) and sampled at 10 kHz or higher and filtered with 3 kHz (-3 dB) or higher as appropriate for sampling rate.
Data analysis and statistics were done using Fitmaster (HEKA electronics, version: v2x73.5, Germany), Microsoft Excel 2021 (Microsoft Corporation, USA), and Igor Pro 9 software (WaveMetrics Inc., USA). Recorded currents were analyzed from stable membrane patches at a voltage defined in the respective figure legend or with a voltage protocol as indicated in the respective figure. […] Percentage inhibition or residual currents upon blocker application for a ligand (drug or bioactive lipid) was calculated from stable currents of excised membrane patches using the following Eqs. 2 and 3:2 %inhibition=1−Iinhibited/Ibasal*100 3 Residual current=100−%inhibition where Iinhibited refers to the stable current level recorded in the presence of a given concentration of a drug or bioactive lipid and Ibasal to the measured current before ligand application.

[3] = biological target: T2, TALK-2 L264A mutant channels; test: Conductance-voltage (G-V) curves from tail currents, V1/2 (intracellular Rb+); parameters: expressed in transfected cells; host or cells: Xenopus laevis oocytes (cRNA injection), excised inside-out patches; settings: for Normalized current: TALK-2 L264A + 1 mM TPenA
Excerpt: The voltage-dependent activation mechanism of the SF gate in K2P channels allows to estimate the electrical work (ΔG = zFΔV1/2) required for pore opening by fitting the G–V curve to a Boltzmann equation. […] The open state represents the situation of both gates being simultaneously open but voltage can only exert force on the SF gate that functions as voltage sensor. […] We further tested whether mutations that open the lower gate (L262A and L264A) would affect the extracellular pH sensitivity. […] We further explored this concept of allosteric coupling using the mutations identified in the functional alanine screen of TM2 and TM4.
Dashed lines in e, f represent the level of WT (unstimulated) V1/2 at pHe 7.4. g Normalized currents from TEVC measurements of oocytes expressing WT (n = 11) and mutant L262A (n = 5) or L264A TALK-2 channels (n = 8), respectively. Channels were activated by increasing pHe from 5.5 to 10.5 with 0.5 pH increments. Currents were elucidated with a voltage protocol ramped from −120 mV to +45 mV within 3.5 s, analyzed at +40 mV and normalized to pH 10.5. Data shown are the mean ± s.e.m and the number (n) of independent experiments is indicated in the figure and supplementary tables 3 and 4.
Conductance-voltage (G–V) relationships were determined from tail currents recorded at a holding potential (VH) of −80 mV after 300 ms depolarizing steps as indicated in the respective figure legend. Data were analyzed with a single Boltzmann fit following Eq. 6:6 GV=Imax/1+e^V−V1/2/slope+Ibase where V1/2 represents the voltage of half-maximal activation, s is the slope factor and Imax and Ibase represent the upper and lower asymptotes. Under appropriate experimental conditions, you can use slope to calculate the valence (charge) of the ion moving across the channel. Slope equals R * T/ z * F where R is the universal gas constant, T is temperature in K, F is the Faraday constant, and z is the valence.

CCCCC[N+](CCCCC)(CCCCC)CCCCC [TPenA, Tetra-pentyl-ammonium chloride]
effect of TPenA inhibition on tail current kinetics ([1]; TREK-2): no effect
deactivation time constant τ of tail currents ([1]; intracellular Rb+ with 50 µM TPenA): 11.2 ± 1.4 ms
IC50 [2]: 459 ± 58 µM
Residual currents with 1 mM TPenA ([2]; TALK-2 L264A, +40 mV): 29.31%
Normalized currents ([2]; TALK-2 L264A, 1 µM TPenA): 0.99
Normalized currents ([2]; TALK-2 L264A, 10 µM TPenA): 0.97
Normalized currents ([2]; TALK-2 L264A, 100 µM TPenA): 0.77
Normalized currents ([2]; TALK-2 L264A, 1000 µM TPenA): 0.32
Normalized currents ([2]; TALK-2 L264A, 4000 µM TPenA): 0.17
Normalized current ([3]; Voltage 0.000): 0.564
Normalized current ([3]; Voltage 0.005): 0.623
Normalized current ([3]; Voltage 0.010): 0.674
Normalized current ([3]; Voltage 0.015): 0.740
Normalized current ([3]; Voltage 0.020): 0.788
Normalized current ([3]; Voltage 0.025): 0.840
Normalized current ([3]; Voltage 0.030): 0.884
Normalized current ([3]; Voltage 0.035): 0.911
Normalized current ([3]; Voltage 0.040): 0.934
Normalized current ([3]; Voltage 0.045): 0.947
Normalized current ([3]; Voltage 0.050): 0.961
Normalized current ([3]; Voltage 0.055): 0.969
Normalized current ([3]; Voltage 0.060): 0.977
Normalized current ([3]; Voltage 0.065): 0.978
Normalized current ([3]; Voltage 0.070): 0.978
Normalized current ([3]; Voltage 0.075): 0.974
Normalized current ([3]; Voltage 0.080): 0.988
Normalized current ([3]; Voltage 0.085): 0.976
Normalized current ([3]; Voltage 0.090): 0.979
Normalized current ([3]; Voltage 0.095): 0.980
Normalized current ([3]; Voltage 0.100): 0.977
Normalized current ([3]; Voltage 0.105): 0.982
Normalized current ([3]; Voltage 0.110): 0.987
Normalized current ([3]; Voltage 0.115): 0.981
Normalized current ([3]; Voltage -0.005): 0.522
Normalized current ([3]; Voltage -0.010): 0.490
Normalized current ([3]; Voltage -0.015): 0.463
Normalized current ([3]; Voltage -0.020): 0.444
Normalized current ([3]; Voltage -0.025): 0.430
Normalized current ([3]; Voltage -0.030): 0.417
Normalized current ([3]; Voltage -0.035): 0.405
Normalized current ([3]; Voltage -0.040): 0.395
Normalized current ([3]; Voltage -0.045): 0.384
Normalized current ([3]; Voltage -0.050): 0.375
Normalized current ([3]; Voltage -0.055): 0.367
Normalized current ([3]; Voltage -0.060): 0.359
Normalized current ([3]; Voltage -0.065): 0.351
Normalized current ([3]; Voltage -0.070): 0.345
Normalized current ([3]; Voltage -0.075): 0.337
Normalized current ([3]; Voltage -0.080): 0.333
Normalized current ([3]; Voltage -0.085): 0.330
Normalized current ([3]; Voltage -0.090): 0.331
Normalized current ([3]; Voltage -0.095): 0.326
effect of TPenA on the G-V curve ([3]; TALK-2 L264A, intracellular Rb+): no marked effect
